{
  "source": "paper PMC7700221",
  "about": "“Antiproliferative Homoleptic and Heteroleptic Phosphino Silver(I) Complexes: Effect of Ligand Combination on Their Biological Mechanism of Action” (Molecules, 2020)",
  "key": {"[1]": {"system": "MCF-7 breast cancer cells", "assay": "cells", "details": "Homo sapiens, MCF7, 72 h, read-out: IC50 (µM) ± S.D. MCF-7"}, "[2]": {"system": "A375 melanoma cells", "assay": "cells", "details": "Homo sapiens, A-375, 72 h, read-out: IC50 (µM) ± S.D. A375"}, "[3]": {"system": "A431 cervical carcinoma cells", "assay": "cells", "details": "Homo sapiens, A-431, 72 h, read-out: IC50 (µM) ± S.D. A431"}, "[4]": {"system": "HCT-15 colon cancer cells", "assay": "cells", "details": "Homo sapiens, HCT-15, 72 h, read-out: IC50 (µM) ± S.D. HCT-15"}, "[5]": {"system": "BxPC3 pancreatic cancer cells", "assay": "cells", "details": "Homo sapiens, BXPC-3, 72 h, read-out: IC50 (µM) ± S.D. BxPC3"}, "[6]": {"system": "A549 lung cancer cells", "assay": "cells", "details": "Homo sapiens, A549, 72 h, read-out: IC50 (µM) ± S.D. A549"}, "[7]": {"system": "2008 cells (cellular DNA fragmentation)", "details": "6 h", "protocol": "About 4 × 10^4 2008 cells were seeded in 25 cm^2 flasks in growth medium (6 mL). After 24 h, cells were incubated for 3h with 2.5µM of tested compounds. Cells were washed twice with cold PBS, harvested, centrifuged, and DNA fragmentation was measured by the alkaline comet assay. Low melting point agarose, 300 μL (Trevigen Inc., Gaithersburg, MD, USA) was heated to 37 °C and combined with 2 × 10^5 cells per mL cell suspension. Each well of a 20-well CometSlide was filled with 30 μL of the cell/agarose suspension. The slides were placed in a 4 °C refrigerator in the dark for 15 min to solidify. Slides were then immersed in 50 mL of pre-chilled lysis solution containing Trizma base, Triton X-100, DMSO and left at 4 °C for 30 min to facilitate cell membrane and histone removal. After draining excess liquid, the slides were transferred to 50 mL of freshly prepared (same day) alkaline DNA unwinding solution, (200 mmol/L NaOH, 1 mmol/L EDTA, pH > 13) and incubated at room temperature in the dark for 20 min. After the unwinding step, electrophoresis was performed at 21 V for 30 min. Slides were then rinsed with distilled water and fixed 5 min in 70% ethanol. Slides were dried and stained 5 min at 4 °C with SYBR Green I (Trevigen, Inc.) diluted 1:10000 in 10 mmol/L Tris pH 7.5, 1 mmol/L EDTA, drained to remove excess staining solution and thoroughly dried at room temperature in the dark. Micrographs were taken with a Zeiss LSM-800 confocal microscope (Zeiss, Oberkochen, Germany)."}, "[8]": {"system": "TrxR", "details": "2008 cells, 18 h, 2.5 µM", "protocol": "TrxR inhibition was also evaluated in 2008 cells treated for 18 h with equimolar concentrations (2.5 µM) of all phosphino silver(I) derivatives and of AgNO3.\nThe 2008 cells were incubated for 18 h with tested compounds. Subsequently, cells were washed twice with Phosphate Buffer Solution (PBS) and lysed. TrxR activity was tested by measuring NADPH-dependent reduction of DTNB and glutathione peroxidase (GPx) activity was followed at 340 nm."}, "[9]": {"molecular_target": "human TrxR1 (Homo sapiens, UniProt Q16881)", "sequence (Q16881 151-649 limits assumed)": "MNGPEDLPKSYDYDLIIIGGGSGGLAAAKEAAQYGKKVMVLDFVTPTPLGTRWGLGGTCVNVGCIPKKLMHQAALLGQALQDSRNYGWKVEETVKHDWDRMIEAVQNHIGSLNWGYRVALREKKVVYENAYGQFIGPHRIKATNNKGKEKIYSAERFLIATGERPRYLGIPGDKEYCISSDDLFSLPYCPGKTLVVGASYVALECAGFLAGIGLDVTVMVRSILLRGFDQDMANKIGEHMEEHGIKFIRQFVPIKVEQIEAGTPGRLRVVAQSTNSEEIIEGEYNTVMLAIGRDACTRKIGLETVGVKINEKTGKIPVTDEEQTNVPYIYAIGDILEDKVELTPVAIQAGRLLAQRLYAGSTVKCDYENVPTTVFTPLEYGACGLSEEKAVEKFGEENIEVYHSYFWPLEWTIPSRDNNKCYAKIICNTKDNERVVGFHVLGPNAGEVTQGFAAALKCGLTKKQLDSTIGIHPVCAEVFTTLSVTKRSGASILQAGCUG", "details": "isolated human TrxR1"}, "[10]": {"system": "C13* cisplatin-resistant ovarian cancer cells"}, "[11]": {"system": "A375 melanoma cells", "details": "read-out: IC50 (µM) ± S.D. A375; 72 h, MTT test"}, "[12]": {"system": "2008 ovarian cancer cells", "details": "read-out: IC50 (µM) ± D.S. 2008; 72 h, MTT test, cisplatin-sensitive cells"}, "[13]": {"system": "human cancer cell line panel", "details": "read-out: average IC50; average over the six cancer cell lines, 72 h MTT"}, "[14]": {"system": "MCF-7 breast cancer cells", "details": "read-out: IC50 (µM) ± S.D. MCF-7; 72 h, MTT test"}, "[15]": {"system": "A549 lung cancer cells", "details": "read-out: IC50 (µM) ± S.D. A549; 72 h, MTT test"}, "[16]": {"system": "BxPC3 pancreatic cancer cells", "details": "read-out: IC50 (µM) ± S.D. BxPC3; 72 h, MTT test"}, "[17]": {"system": "HCT-15 colon cancer cells", "details": "for times more effective than cisplatin, HCT-15: HCT-15 cells, 72 h MTT, versus cisplatin"}, "[18]": {"system": "A431 cervical carcinoma cells", "details": "read-out: IC50 (µM) ± S.D. A431; 72 h, MTT test"}, "[19]": {"system": "2008 cells", "details": "IC50 of compounds", "protocol": "The production of ROS was measured in 2008 cells (10^4 per well) grown for 24 h in a 96-well plate in RPMI medium without phenol red (Sigma Chemical Co.). Cells were then washed with PBS and loaded with 10 μM 5-(and-6)-chloromethyl-2′,7′-dichlorodihydrofluorescein diacetate acetyl ester (CM–H2DCFDA) (Molecular Probes-Invitrogen, Eugene, OR) for 25 min, in the dark. Afterwards, cells were washed with PBS and incubated with increasing concentrations of tested compounds. Fluorescence increase was estimated utilizing the wavelengths of 485 nm (excitation) and 527 nm (emission) in a Fluoroskan Ascent FL (Labsystems, Finland) plate reader.\nError bars indicate S.D. (B) effect of silver(I) compounds on hydrogen peroxide formation in 2008 cells. 2008 cells were pre-incubated in PBS/10 mM glucose medium for 20 min at 37 °C in presence of 10 µM CM-DCFDA and then treated with IC50 of silver(I) compounds."}, "[20]": {"system": "2008 cells", "details": "24 h or 48 h", "protocol": "The 2008 cells (2 × 10^5) were seeded in a six-well plate in growth medium (4 mL). After 24 h, cells were incubated for 24 h with increasing concentrations of tested compounds. Subsequently, the thiol content was measured as previously described [43].\n(A) Sulfhydryl content in 2008-treated cancer cells incubated for 24 h or 48 h with tested silver(I) compounds. The sulfhydryl group amount was determined by the DTNB assay."}, "[21]": {"system": "2008 cells", "details": "48 h, IC50 concentrations", "protocol": "About 10^6 2008 cells were seeded in 24-well plates and, after 24 h incubation, were treated with the tested compounds and incubated for additional 24 h. Cells were then washed with cold PBS, harvested and directly fixed with 1.5% glutaraldehyde buffer with 0.2 M sodium cacodylate, pH 7.4. After washing with buffer and postfixation with 1% OsO4 in 0.2 M cacodylate buffer, specimens were dehydrated and embedded in epoxy resin (Epon Araldite). Sagittal serial sections (1 μm) were counterstained with toluidine blue; thin sections (90 nm) were given contrast by staining with uranyl acetate and lead citrate. Micrographs were taken with a Hitachi H-600 electron microscope (Hitachi, Tokyo, Japan) operating at 75 kV."}, "[22]": {"system": "CT-DNA", "protocol": "From the observed spectra, KSV was calculated according to the classical Stern–Volmer equation (Figure S16B).\nThe UV–Vis absorption spectroscopic studies and the DNA binding experiments were performed at\nExperiments were performed by maintaining a fixed CT-DNA concentration (30\nSample solutions were scanned in the range\n200−500 nm on a computer-controlled Varian Coulter DU 800 spectrophotometer.\nEB–DNA competition experiments\nThe ethidium bromide (EB) displacement experiments were performed by titration with aliquots of\ntested compounds of a Tris buffer solution containing 10 μM DNA (8.0–15 kbp) and 0.33 μM EB\n(saturated binding levels). The fluorescence spectrum of the solution was obtained by exciting at 520\nnm and measuring the emission spectra at 587 nm.\ndetermined from the slope of the diagram F0/F versus r."}, "[23]": {"system": "caspase-3", "details": "2008 cells, IC50, 24 or 48 h", "protocol": "(§1) The 2008 cells (1 × 10^6) were treated for 24 h with the IC50 doses of tested compounds, harvested and homogenized in a lysis buffer [1% Triton X-100, 320 nM sucrose, 5 mM EDTA, 10 mM Tris–HCl and 2 mM DTT (1,4-dithio-DL-threitol) buffer (pH 7.6)]. Protein aliquots (100 μg) were stained at 37 °C for 60 min with fluorescent caspase-3 (N-Acetyl-Asp-Glu-Val-Asp-AMC, AMC = 7-amino-4-methylcoumarin) or caspase-9 (Ac-Leu-Glu-His-Asp-AMC) substrate (Sigma Co.). Substrate hydrolysis was measured after 60 min by monitoring the release of AMC using a spectrofluorometer (excitation at 370 nm, emission at 460 nm).\n(§2) Effect of silver(I) compounds on caspase-3 and -9 activation. […] Data are the means of at least three independent experiments. Error bars indicate SD."}, "[24]": {"system": "2008 cells", "details": "IC50 concentrations, 24 or 48 h", "protocol": "In particular, 2008 cells were treated for 24 or 48 h with IC50 concentrations of tested Ag(I) complexes, and the percentage of cells with hypopolarized mitochondrial membrane potential was determined fluorimetrically by means of the Mito-ID® Membrane Potential Kit.\nThe ΔΨ was assayed using the Mito-ID® Membrane Potential Kit according to the manufacturer’s instructions (Enzo Life Sciences, Farmingdale, NY). Briefly, 2008 cells (8 × 10^3 per well) were seeded in 96-well plates; after 24 h, cells were washed with PBS and loaded with Mito-ID Detection Reagent for 30 min at 37 °C in the dark. Afterwards, cells were incubated with increasing concentrations of tested complexes. Fluorescence intensity was estimated using a plate reader (Fluoroskan Ascent FL, Labsystems, Finland) at 490 (excitation) and 590 nm (emission). Carbonyl cyanide m-chlorophenyl hydrazone (CCCP, 4 μM), a chemical inhibitor of the oxidative phosphorylation, was used as positive control.\n2008 cells were treated for 24 h or 48 h with IC50 concentrations of tested complexes or CCCP (3 μM). The percentage of cells with hypopolarized mitochondrial membrane potential was determined by Mito-ID® Membrane Potential Kit. Data are the means of three independent experiments. Error bars indicate S.D."}, "[25]": {"system": "caspase-9", "sequence (P55211 whole entry)": "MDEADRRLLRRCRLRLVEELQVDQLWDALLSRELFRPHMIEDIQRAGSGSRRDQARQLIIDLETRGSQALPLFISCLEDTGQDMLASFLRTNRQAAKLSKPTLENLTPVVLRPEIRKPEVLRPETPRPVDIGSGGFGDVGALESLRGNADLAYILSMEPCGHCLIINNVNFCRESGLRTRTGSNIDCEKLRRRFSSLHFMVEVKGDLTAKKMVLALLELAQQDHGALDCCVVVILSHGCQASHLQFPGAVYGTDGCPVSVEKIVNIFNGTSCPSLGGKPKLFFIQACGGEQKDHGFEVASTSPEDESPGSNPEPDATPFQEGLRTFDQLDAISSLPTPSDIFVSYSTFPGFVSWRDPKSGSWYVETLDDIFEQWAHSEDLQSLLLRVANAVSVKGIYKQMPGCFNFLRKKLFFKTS", "details": "2008 cells, IC50 concentration, 24 h", "protocol": "as §1, §2"}},
  "note": "Like-named read-outs stand apart in the source and are kept apart here.",
  "data": [
    {"molecule": "CC(=O)N1CN2CN(C(C)=O)CP(C2)C1", "note": "[DAPTA, 3,7-diacetyl-1,3,7-triaza-5-phosphabicyclo [3.3.1]nonane]", "values": [
      {"measurement": "IC50", "setting": "[1]", "value": "85.3 ± 4", "unit": "µM"},
      {"measurement": "IC50", "setting": "[2]", "value": "> 100", "unit": "µM"},
      {"measurement": "IC50", "setting": "[3]", "value": "> 100", "unit": "µM"},
      {"measurement": "IC50", "setting": "[4]", "value": "67.1 ± 3.1", "unit": "µM"},
      {"measurement": "IC50", "setting": "[5]", "value": "89.5 ± 4.1", "unit": "µM"},
      {"measurement": "IC50", "setting": "[6]", "value": "> 100", "unit": "µM"}
    ]},
    {"molecule": "N#CCCP(CCC#N)CCC#N", "note": "[PCN, tris(cyanoethyl)phosphine]", "values": [
      {"measurement": "IC50", "setting": "[1]", "value": "> 100", "unit": "µM"},
      {"measurement": "IC50", "setting": "[2]", "value": "> 100", "unit": "µM"},
      {"measurement": "IC50", "setting": "[3]", "value": "> 100", "unit": "µM"},
      {"measurement": "IC50", "setting": "[4]", "value": "> 100", "unit": "µM"},
      {"measurement": "IC50", "setting": "[5]", "value": "> 100", "unit": "µM"},
      {"measurement": "IC50", "setting": "[6]", "value": "> 100", "unit": "µM"}
    ]},
    {"molecule": "c1ccc(P(c2ccccc2)c2ccccc2)cc1", "note": "[PPh3, triphenylphosphine]", "values": [
      {"measurement": "DNA damage in comet assay, in words", "setting": "[7]", "value": "scarcely effective in increasing comet tail lengths"},
      {"measurement": "IC50", "setting": "[1]", "value": "34.2 ± 3.4", "unit": "µM"},
      {"measurement": "IC50", "setting": "[2]", "value": "52.3 ± 2.5", "unit": "µM"},
      {"measurement": "IC50", "setting": "[3]", "value": "47.5 ± 1.1", "unit": "µM"},
      {"measurement": "IC50", "setting": "[4]", "value": "54.1 ± 4.2", "unit": "µM"},
      {"measurement": "IC50", "setting": "[5]", "value": "62.2 ± 2.2", "unit": "µM"},
      {"measurement": "IC50", "setting": "[6]", "value": "30.1 ± 2.1", "unit": "µM"}
    ]},
    {"molecule": "C1N2CN3CN1CP(C2)C3", "note": "[PTA, 1,3,5-triaza-7-phosphaadamantane]", "values": [
      {"measurement": "IC50", "setting": "[1]", "value": "> 100", "unit": "µM"},
      {"measurement": "IC50", "setting": "[2]", "value": "> 100", "unit": "µM"},
      {"measurement": "IC50", "setting": "[3]", "value": "> 100", "unit": "µM"},
      {"measurement": "IC50", "setting": "[4]", "value": "> 100", "unit": "µM"},
      {"measurement": "IC50", "setting": "[5]", "value": "> 100", "unit": "µM"},
      {"measurement": "IC50", "setting": "[6]", "value": "> 100", "unit": "µM"}
    ]},
    {"molecule": "O=S1(=O)N2CN3CN1CP(C3)C2", "note": "[PTA-SO2]", "values": [
      {"measurement": "IC50", "setting": "[1]", "value": "69.5 ± 3.4", "unit": "µM"},
      {"measurement": "IC50", "setting": "[2]", "value": "> 100", "unit": "µM"},
      {"measurement": "IC50", "setting": "[3]", "value": "56 ± 3.5", "unit": "µM"},
      {"measurement": "IC50", "setting": "[4]", "value": "> 100", "unit": "µM"},
      {"measurement": "IC50", "setting": "[5]", "value": "> 100", "unit": "µM"},
      {"measurement": "IC50", "setting": "[6]", "value": "> 100", "unit": "µM"}
    ]},
    {"molecule": "AgNO3", "values": [
      {"measurement": "reduction of total cellular TrxR activity", "setting": "[8]", "value": 12, "unit": "%"},
      {"measurement": "TrxR1 inhibition, in words", "setting": "[9]", "value": "effective in inhibiting the redox enzyme activity at nanomolar level"}
    ]},
    {"molecule": "Cisplatin", "values": [
      {"measurement": "RF", "setting": "[10]; RF = IC50 resistant/IC50 parental cell lines (C13*/2008)", "value": 9.5},
      {"measurement": "IC50", "setting": "[10]; read-out: IC50 (µM) ± D.S. C13*, 72 h, MTT test, cisplatin-resistant cells", "value": "21.5 ± 3", "unit": "µM"},
      {"measurement": "IC50", "setting": "[11]", "value": "4 ± 1", "unit": "µM"},
      {"measurement": "IC50", "setting": "[12]", "value": "2.3 ± 1.1", "unit": "µM"},
      {"measurement": "IC50", "setting": "[13]", "value": 7.9, "unit": "µM"},
      {"measurement": "IC50", "setting": "[14]", "value": "7.6 ± 3", "unit": "µM"},
      {"measurement": "IC50", "setting": "[15]", "value": "8.4 ± 0.9", "unit": "µM"},
      {"measurement": "IC50", "setting": "[16]", "value": "10.2 ± 1.7", "unit": "µM"},
      {"measurement": "IC50", "setting": "[17]; read-out: IC50 (µM) ± S.D. HCT-15, 72 h, MTT test", "value": "15.5 ± 2.5", "unit": "µM"},
      {"measurement": "IC50", "setting": "[18]", "value": "2.1 ± 0.4", "unit": "µM"}
    ]},
    {"molecule": "[Ag(PCN)2]BF4 [Compound 9]", "values": [
      {"measurement": "reduction of total cellular TrxR activity", "setting": "[8]", "value": "about 70%"},
      {"measurement": "times more effective than cisplatin, HCT-15", "setting": "[17]", "value": "roughly 4.4 fold"}
    ]},
    {"molecule": "[Ag(PPh3)4]BF4 [Compound 10]", "values": [
      {"measurement": "basal ROS / hydrogen peroxide production", "setting": "[19]", "value": "increase in basal hydrogen peroxide formation rather similar to that obtained with antimycin"},
      {"measurement": "cellular sulfhydryl content", "setting": "[20]", "value": "lowest levels of cellular sulfhydryl groups"},
      {"measurement": "DNA damage in comet assay, in words", "setting": "[7]", "value": "barely effective in provoking DNA damage"},
      {"measurement": "reduction of total cellular TrxR activity", "setting": "[8]", "value": "about 75%"},
      {"measurement": "mitochondrial morphology by TEM", "setting": "[21]", "value": "mitochondria with disrupted cristae and a significant increase in volume (swelling)"},
      {"measurement": "modification of DNA absorption bands", "setting": "[22]", "value": "no significant modifications in DNA properties"},
      {"measurement": "caspase-3 activation", "setting": "[23]", "value": "time-dependent activation of caspase-3"},
      {"measurement": "times more effective than cisplatin, HCT-15", "setting": "[17]", "value": "roughly 4.4 fold"},
      {"measurement": "cells with hypopolarized mitochondrial membrane potential", "setting": "[24]", "value": "increase in the percentage of hypopolarized cells similar to that induced by reference compound carbonyl cyanide-m-chlorophenylhydrazone (CCCP)"},
      {"measurement": "enhancement in caspase-9 activity compared to control cells", "setting": "[25]", "value": 2.6, "unit": "fold"}
    ]},
    {"molecule": "[HB(pz)3]Ag(PPh3) [Compound 5]", "values": [
      {"measurement": "basal ROS / hydrogen peroxide production", "setting": "[19]", "value": "increase in basal hydrogen peroxide formation rather similar to that obtained with antimycin"},
      {"measurement": "cellular sulfhydryl content", "setting": "[20]", "value": "lowest levels of cellular sulfhydryl groups"},
      {"measurement": "increase of well-formed comets", "setting": "[7]; IC50 dose", "value": "about 69%"},
      {"measurement": "reduction of total cellular TrxR activity", "setting": "[8]", "value": "about 75%"},
      {"measurement": "mitochondrial morphology by TEM", "setting": "[21]", "value": "mitochondria with disrupted cristae and a significant increase in volume (swelling)"},
      {"measurement": "modification of DNA absorption bands", "setting": "[22]", "value": "slight hyperchromic effect at 263 nm"},
      {"measurement": "caspase-3 activation", "setting": "[23]", "value": "time-dependent activation of caspase-3"},
      {"measurement": "times more effective than cisplatin, HCT-15", "setting": "[17]", "value": "about 7 fold"},
      {"measurement": "cells with hypopolarized mitochondrial membrane potential", "setting": "[24]", "value": "increase in the percentage of hypopolarized cells similar to that induced by reference compound carbonyl cyanide-m-chlorophenylhydrazone (CCCP)"},
      {"measurement": "enhancement in caspase-9 activity compared to control cells", "setting": "[25]", "value": 3.3, "unit": "fold"}
    ]}
  ]
}
